*1 amine or outer side, *2 acyl side, *3 side chain or, on linkers, in order; H or OH if unused. Where a SMILES comes first, the peptide text is derived from it. [ ]: non-standard residue; d: D form. β3hPhe(2R-OH) = O=C([C@H](O)[C@H](Cc1ccccc1)N[*:1])[*:2]; Dap = NC[C@H](N)C(=O)O; CO = O=C([*:1])[*:2]
biological target: T1, Beta-secretase 1 (Homo sapiens, UniProt P56817); test: Inhibitory concentration of compound against Beta-secretase 1 was evaluated
T1 sequence (P56817 whole entry): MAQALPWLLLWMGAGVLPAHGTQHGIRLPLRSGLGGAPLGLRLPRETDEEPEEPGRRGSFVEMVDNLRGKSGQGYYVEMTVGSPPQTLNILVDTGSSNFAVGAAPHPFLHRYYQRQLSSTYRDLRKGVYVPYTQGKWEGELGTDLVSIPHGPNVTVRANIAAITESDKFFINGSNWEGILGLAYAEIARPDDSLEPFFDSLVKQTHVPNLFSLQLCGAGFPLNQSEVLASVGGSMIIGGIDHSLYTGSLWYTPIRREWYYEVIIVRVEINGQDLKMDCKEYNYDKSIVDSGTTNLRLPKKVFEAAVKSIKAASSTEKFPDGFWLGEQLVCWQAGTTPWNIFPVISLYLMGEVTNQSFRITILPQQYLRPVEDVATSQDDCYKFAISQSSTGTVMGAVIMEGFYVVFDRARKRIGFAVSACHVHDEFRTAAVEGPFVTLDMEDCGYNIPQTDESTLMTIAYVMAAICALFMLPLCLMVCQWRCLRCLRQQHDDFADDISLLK

Compound	IC50
CC(C)C[C@H](NC(=O)[C@@H](NC(=O)[C@@H](N)CNC(=O)O)C(C)C)C(=O)N[C@@H](Cc1ccccc1)[C@@H](O)C(=O)Nc1cccc(C(=O)O)c1	16 nM
CC(C)C[C@H](NC(=O)[C@@H](NC(=O)[C@@H](N)CNC(=O)O)C(C)C)C(=O)N[C@@H](Cc1ccccc1)[C@@H](O)C(=O)N[C@@H](CC(=O)O)C(=O)N[C@@H](C)C(=O)N[C@@H](CCC(=O)O)C(=O)O (H-[Dap](CO)VL[β3hPhe(2R-OH)]DAE-OH)	84 nM
CC(C)C[C@H](NC(=O)[C@@H](NC(=O)[C@@H](N)CNC(=O)O)C(C)C)C(=O)N[C@@H](Cc1ccccc1)[C@@H](O)C(=O)Nc1cc(C(=O)O)cc(C(=O)O)c1	3.4 nM
CC(C)C[C@H](NC(=O)[C@@H](NC(=O)[C@@H](N)CCC(=O)O)C(C)C)C(=O)N[C@@H](Cc1ccccc1)[C@@H](O)C(=O)Nc1cc(C(=O)O)cc(C(=O)O)c1	55 nM

biological target: T1, Beta-secretase 1; test: Inhibition of Beta-secretase 1 at 2 uM concentration

Compound	inhibition
CC(C)C[C@H](NC(=O)[C@@H](NC(=O)[C@@H](N)CCC(=O)O)C(C)C)C(=O)N[C@@H](Cc1ccccc1)[C@@H](O)C(=O)N[C@@H](CC(=O)O)C(=O)O (HELM PEPTIDE1{E.V.L.[O=C([C@H](O)[C@H](Cc1ccccc1)N[*:1])[*:2]].D}$$$$V2.0)	61%
CC(C)C[C@H](NC(=O)CNC(=O)[C@@H](N)CCC(=O)O)C(=O)N[C@@H](Cc1ccccc1)C(O)C(=O)N[C@@H](CC(=O)O)C(=O)NC(C)C(=O)N[C@@H](CCC(=O)O)C(=O)N[C@@H](Cc1ccccc1)C(=O)O (single isomer, unassigned)	< 20%
CC(C)C[C@H](NC(=O)[C@@H](NC(=O)[C@@H](N)CCCC(=O)O)C(C)C)C(=O)N[C@@H](Cc1ccccc1)[C@@H](O)C(=O)N[C@@H](CC(=O)O)C(=O)N[C@@H](C)C(=O)N[C@@H](CCC(=O)O)C(=O)O (HELM PEPTIDE1{[N[C@@H](CCCC(=O)O)C(=O)[*:2]].V.L.[O=C([C@H](O)[C@H](Cc1ccccc1)N[*:1])[*:2]].D.A.E}$$$$V2.0)	43%
CC(C)C[C@H](NC(=O)[C@@H](NC(=O)[C@@H](N)CC(=O)O)C(C)C)C(=O)N[C@@H](Cc1ccccc1)[C@@H](O)C(=O)N[C@@H](CC(=O)O)C(=O)N[C@@H](C)C(=O)N[C@@H](CCC(=O)O)C(=O)O (HELM PEPTIDE1{D.V.L.[O=C([C@H](O)[C@H](Cc1ccccc1)N[*:1])[*:2]].D.A.E}$$$$V2.0)	< 20%
CC(C)C[C@H](N)C(=O)N[C@@H](Cc1ccccc1)[C@@H](O)C(=O)N[C@@H](CC(=O)O)C(=O)N[C@@H](C)C(=O)N[C@@H](CCC(=O)O)C(=O)N[C@@H](Cc1ccccc1)C(=O)O (HELM PEPTIDE1{L.[O=C([C@H](O)[C@H](Cc1ccccc1)N[*:1])[*:2]].D.A.E.F}$$$$V2.0)	< 20%
CC(C)C[C@H](NC(=O)[C@@H](NC(=O)[C@@H](N)CCC(=O)O)C(C)C)C(=O)N[C@@H](Cc1ccccc1)[C@@H](O)C(=O)Nc1cccc(C(=O)O)c1 (mixture of isomers)	82%
CC(C)C[C@H](NC(=O)[C@@H](NC(=O)[C@@H](N)CCC(=O)O)C(C)C)C(=O)N[C@@H](Cc1ccccc1)[C@@H](O)C(=O)N[C@@H](CC(=O)O)C(=O)NC(C)C(=O)NCC(=O)N[C@@H](Cc1ccccc1)C(=O)O (single isomer, unassigned)	56%
CC(C)C[C@H](NC(=O)[C@@H](NC(=O)[C@@H](N)CCC(=O)O)C(C)C)C(=O)N[C@@H](Cc1ccccc1)[C@@H](O)C(=O)NCC(=O)N[C@@H](C)C(=O)N[C@@H](CCC(=O)O)C(=O)N[C@@H](Cc1ccccc1)C(=O)O (HELM PEPTIDE1{E.V.L.[O=C([C@H](O)[C@H](Cc1ccccc1)N[*:1])[*:2]].G.A.E.F}$$$$V2.0)	54%
C[C@H](NC(=O)[C@H](CC(=O)O)NC(=O)[C@H](O)[C@@H](N)Cc1ccccc1)C(=O)N[C@@H](CCC(=O)O)C(=O)N[C@@H](Cc1ccccc1)C(=O)O (HELM PEPTIDE1{[N[C@@H](Cc1ccccc1)[C@@H](O)C(=O)[*:2]].D.A.E.F}$$$$V2.0)	< 20%
CC(C)C[C@H](NC(=O)[C@@H](NC(=O)[C@@H](N)CCC(=O)O)C(C)C)C(=O)N[C@@H](Cc1ccccc1)[C@@H](O)C(=O)N[C@@H](CC(=O)O)C(=O)N[C@@H](C)C(=O)N[C@@H](CCC(=O)O)C(=O)NCC(=O)O (HELM PEPTIDE1{E.V.L.[O=C([C@H](O)[C@H](Cc1ccccc1)N[*:1])[*:2]].D.A.E.G}$$$$V2.0)	65%
CC(C)C[C@H](NC(=O)[C@@H](N)C(C)C)C(=O)N[C@@H](Cc1ccccc1)[C@@H](O)C(=O)N[C@@H](CC(=O)O)C(=O)N[C@@H](C)C(=O)N[C@@H](CCC(=O)O)C(=O)N[C@@H](Cc1ccccc1)C(=O)O (HELM PEPTIDE1{V.L.[O=C([C@H](O)[C@H](Cc1ccccc1)N[*:1])[*:2]].D.A.E.F}$$$$V2.0)	< 20%
CC(C)C[C@H](NC(=O)[C@@H](NC(=O)[C@@H](N)CCC(=O)O)C(C)C)C(=O)N[C@@H](Cc1ccccc1)[C@@H](O)C(=O)O (mixture of isomers)	34%
CC(C)C[C@H](NC(=O)[C@@H](NC(=O)[C@@H](N)CNC(=O)O)C(C)C)C(=O)N[C@@H](Cc1ccccc1)[C@@H](O)C(=O)N[C@@H](CC(=O)O)C(=O)N[C@@H](C)C(=O)N[C@@H](CCC(=O)O)C(=O)O (H-[Dap](CO)VL[β3hPhe(2R-OH)]DAE-OH)	> 90%
CC(C)C[C@H](NC(=O)[C@@H](NC(=O)[C@@H](N)CCC(=O)O)C(C)C)C(=O)N[C@@H](Cc1ccccc1)[C@@H](O)C(=O)NCc1cccc(C(=O)O)c1	64%
CC(C)C[C@H](NC(=O)[C@@H](NC(=O)[C@@H](N)CCC(=O)O)C(C)C)C(=O)N[C@@H](Cc1ccccc1)[C@@H](O)C(=O)NCc1ccc(C(=O)O)cc1	52%
CC(C)C[C@H](NC(=O)[C@@H](NC(=O)[C@@H](N)CCC(=O)O)C(C)C)C(=O)N[C@@H](Cc1ccccc1)[C@@H](O)C(=O)N[C@@H](CC(=O)O)C(=O)N[C@@H](C)C(=O)O (HELM PEPTIDE1{E.V.L.[O=C([C@H](O)[C@H](Cc1ccccc1)N[*:1])[*:2]].D.A}$$$$V2.0)	46%
CC(C)C[C@H](NC(=O)[C@@H](NC(=O)[C@@H](N)CCC(=O)O)C(C)C)C(=O)N[C@@H](Cc1ccccc1)[C@@H](O)C(=O)N[C@@H](CC(=O)O)C(=O)N[C@@H](C)C(=O)N[C@@H](CCC(=O)O)C(=O)N[C@@H](Cc1ccccc1)C(=O)O (HELM PEPTIDE1{E.V.L.[O=C([C@H](O)[C@H](Cc1ccccc1)N[*:1])[*:2]].D.A.E.F}$$$$V2.0)	< 90%
CC(C)C[C@H](NC(=O)[C@@H](NC(=O)[C@@H](N)CCC(N)=O)C(C)C)C(=O)N[C@@H](Cc1ccccc1)[C@@H](O)C(=O)N[C@@H](CC(=O)O)C(=O)N[C@@H](C)C(=O)N[C@@H](CCC(=O)O)C(=O)O (HELM PEPTIDE1{Q.V.L.[O=C([C@H](O)[C@H](Cc1ccccc1)N[*:1])[*:2]].D.A.E}$$$$V2.0)	< 20%
CC(C)C[C@H](NC(=O)[C@@H](NC(=O)[C@@H](N)CCC(=O)O)C(C)C)C(=O)N[C@@H](Cc1ccccc1)[C@@H](O)C(=O)N[C@@H](CC(=O)O)C(=O)N[C@@H](C)C(=O)N[C@@H](CCC(=O)O)C(=O)O (HELM PEPTIDE1{E.V.L.[O=C([C@H](O)[C@H](Cc1ccccc1)N[*:1])[*:2]].D.A.E}$$$$V2.0)	60%
CC(C)C[C@H](NC(=O)[C@@H](NC(=O)[C@@H](N)CCC(=O)O)C(C)C)C(=O)N[C@@H](Cc1ccccc1)[C@@H](O)C(=O)NCc1ccccc1	30%
CC(C)C[C@H](NC(=O)[C@@H](NC(=O)[C@@H](N)CCC(=O)O)C(C)C)C(=O)N[C@@H](Cc1ccccc1)[C@@H](O)C(=O)Nc1cc(C(=O)O)cc(C(=O)O)c1	> 90%
CC(C)C[C@H](NC(=O)[C@@H](NC(=O)CN)C(C)C)C(=O)N[C@@H](Cc1ccccc1)[C@@H](O)C(=O)N[C@@H](CC(=O)O)C(=O)N[C@@H](C)C(=O)N[C@@H](CCC(=O)O)C(=O)N[C@@H](Cc1ccccc1)C(=O)O (HELM PEPTIDE1{G.V.L.[O=C([C@H](O)[C@H](Cc1ccccc1)N[*:1])[*:2]].D.A.E.F}$$$$V2.0)	< 20%
CC(C)C[C@H](NC(=O)[C@@H](NC(=O)CCCC(=O)O)C(C)C)C(=O)N[C@@H](Cc1ccccc1)[C@@H](O)C(=O)N[C@@H](CC(=O)O)C(=O)N[C@@H](C)C(=O)N[C@@H](CCC(=O)O)C(=O)O (HELM PEPTIDE1{[O=C(O)CCCC(=O)[*:2]].V.L.[O=C([C@H](O)[C@H](Cc1ccccc1)N[*:1])[*:2]].D.A.E}$$$$V2.0)	< 20%
CC(C)[C@H](NC(=O)[C@@H](N)CCC(=O)O)C(=O)NCC(=O)N[C@@H](Cc1ccccc1)[C@@H](O)C(=O)N[C@@H](CC(=O)O)C(=O)N[C@@H](C)C(=O)N[C@@H](CCC(=O)O)C(=O)N[C@@H](Cc1ccccc1)C(=O)O (HELM PEPTIDE1{E.V.G.[O=C([C@H](O)[C@H](Cc1ccccc1)N[*:1])[*:2]].D.A.E.F}$$$$V2.0)	< 20%
CC(C)C[C@H](NC(=O)[C@@H](NC(=O)[C@@H](N)CCC(=O)O)C(C)C)C(=O)N[C@@H](Cc1ccccc1)[C@@H](O)C(=O)Nc1ccc(C(=O)O)cc1	79%
CC(C)C[C@H](NC(=O)[C@@H](NC(=O)[C@@H](N)CCC(=O)O)C(C)C)C(=O)N[C@@H](Cc1ccccc1)[C@@H](O)C(=O)N[C@@H](CC(=O)O)C(=O)NCC(=O)N[C@@H](CCC(=O)O)C(=O)N[C@@H](Cc1ccccc1)C(=O)O (HELM PEPTIDE1{E.V.L.[O=C([C@H](O)[C@H](Cc1ccccc1)N[*:1])[*:2]].D.G.E.F}$$$$V2.0)	73%

Reference: ChEMBL document CHEMBL1147635, “KMI-358 and KMI-370, highly potent and small-sized BACE1 inhibitors containing phenylnorstatine” (Bioorg Med Chem Lett, 2004)
